Test results reported in ChEMBL document CHEMBL5614422, “Design, synthesis and biological evaluation of N-salicyloyl tryptamine derivatives as multifunctional neuroprotectants for the treatment of ischemic stroke” (Eur J Med Chem, 2024).
≈ marks a conversion by molar mass, not a printed value.

What was measured:
[1] = Aqueous solubility of the compound incubated for 72 hrs under shaking condition by HPLC analysis; assay type: physicochemical
HT-22 [2] = assay: Anti-apoptotic activity in OGD/R mouse HT-22 cells assessed as viable cells at 1 uM by annexin V-FITC and PI staining based flow cytometry analysis (reference value: 83.09%); assay type: functional; settings: read-out: Activity
HT-22 [3] = assay: Neuroprotective activity against OGD/R induced cell damage in mouse HT-22 cells assessed as cell viability at 10 uM measured after 24 hrs by MTT assay (reference value: 69.01 +/-2.90%); assay type: functional; settings: read-out: Activity
[4] = Drug concentration in male Sprague-Dawley rat Cerebrospinal fluid at 60 mg/kg, ip measured after 4 hrs by LC-MS analysis; assay type: ADME, organism-based; settings: read-out: Ct
HT-22 [5] = assay: Antioxidant activity against OGD/R induced damage in mouse HT-22 cells assessed as decrease in proportion of mitochondrial depolarized cells at 10 uM by JC-1 fluorescence based flow cytometry analysis (reference value: 91.7%); assay type: functional; set-up: scale not given: the % may be the effect or the level left
HT-22 [6] = assay: Antioxidant activity against OGD/R induced damage in mouse HT-22 cells assessed as decrease in proportion of mitochondrial depolarized cells at 1 uM by JC-1 fluorescence based flow cytometry analysis (reference value: 91.7%); assay type: functional; set-up: scale not given: the % may be the effect or the level left
[7] = Drug concentration in male Sprague-Dawley rat plasma at 60 mg/kg, ip measured after 4 hrs by LC-MS analysis; assay type: ADME, organism-based
[8] = Cytotoxicity against mouse HT-22 cells assessed as cell viability incubated for 24 hrs by CCK-8 method; assay type: toxicity, cell-based
HT-22 [9] = assay: Anti-apoptotic activity in OGD/R mouse HT-22 cells assessed as necrotic cells at 5 uM by annexin V-FITC and PI staining based flow cytometry analysis (reference value: 0.14%); assay type: functional
HT-22 [10] = assay: Anti-apoptotic activity in OGD/R mouse HT-22 cells assessed as late apoptotic cells at 10 uM by annexin V-FITC and PI staining based flow cytometry analysis (reference value: 7.26%); assay type: functional
[11] = Drug concentration in male Sprague-Dawley rat plasma at 60 mg/kg, ip measured after 2 hrs by LC-MS analysis; assay type: ADME, organism-based
HT-22 [12] = assay: Anti-apoptotic activity in OGD/R mouse HT-22 cells assessed as necrotic cells at 10 uM by annexin V-FITC and PI staining based flow cytometry analysis (reference value: 0.14%); assay type: functional
HT-22 [13] = assay: Anti-apoptotic activity in OGD/R mouse HT-22 cells assessed as viable cells at 10 uM by annexin V-FITC and PI staining based flow cytometry analysis (reference value: 83.09%); assay type: functional; settings: read-out: Activity
[14] = Cytotoxicity against mouse BV-2 cells assessed as cell viability incubated for 24 hrs by CCK-8 method; assay type: toxicity, cell-based
HT-22 [15] = assay: Anti-apoptotic activity in OGD/R mouse HT-22 cells assessed as early apoptotic cells at 10 uM by annexin V-FITC and PI staining based flow cytometry analysis (reference value: 9.51%); assay type: functional
[16] = Drug concentration in male Sprague-Dawley rat Cerebrospinal fluid at 60 mg/kg, ip measured after 2 hrs by LC-MS analysis; assay type: ADME, organism-based; settings: read-out: Ct
[17] = Permeability of the compound by PAMPA method; assay type: ADME; settings: read-out: permeability
[18] = Half life in 12 hrs fasted male Sprague-Dawley rat at 50 mg/kg measured upto 48 hrs by LC-MS/MS analysis; assay type: ADME, organism-based; settings: in vivo
[19] = Drug concentration in male Sprague-Dawley rat Cerebrospinal fluid at 60 mg/kg, ip measured after 0.5 hrs by LC-MS analysis; assay type: ADME, organism-based; settings: read-out: Ct
HT-22 [20] = assay: Anti-apoptotic activity in OGD/R mouse HT-22 cells assessed as late apoptotic cells at 5 uM by annexin V-FITC and PI staining based flow cytometry analysis (reference value: 7.26%); assay type: functional
HT-22 [21] = assay: Antioxidant activity against OGD/R induced damage in mouse HT-22 cells assessed as decrease in proportion of mitochondrial depolarized cells at 5 uM by JC-1 fluorescence based flow cytometry analysis (reference value: 91.7%); assay type: functional; set-up: scale not given: the % may be the effect or the level left
[22] = Drug concentration in male Sprague-Dawley rat plasma at 60 mg/kg, ip measured after 0.5 hrs by LC-MS analysis; assay type: ADME, organism-based
HT-22 [23] = assay: Anti-apoptotic activity in OGD/R mouse HT-22 cells assessed as early apoptotic cells at 1 uM by annexin V-FITC and PI staining based flow cytometry analysis (reference value: 9.51%); assay type: functional
HT-22 [24] = assay: Anti-apoptotic activity in OGD/R mouse HT-22 cells assessed as viable cells at 5 uM by annexin V-FITC and PI staining based flow cytometry analysis (reference value: 83.09%); assay type: functional; settings: read-out: Activity
HT-22 [25] = assay: Anti-apoptotic activity in OGD/R mouse HT-22 cells assessed as early apoptotic cells at 5 uM by annexin V-FITC and PI staining based flow cytometry analysis (reference value: 9.51%); assay type: functional
HT-22 [26] = assay: Anti-apoptotic activity in OGD/R mouse HT-22 cells assessed as necrotic cells at 1 uM by annexin V-FITC and PI staining based flow cytometry analysis (reference value: 0.14%); assay type: functional
HT-22 [27] = assay: Anti-apoptotic activity in OGD/R mouse HT-22 cells assessed as late apoptotic cells at 1 uM by annexin V-FITC and PI staining based flow cytometry analysis (reference value: 7.26%); assay type: functional
[28] = Acute toxicity in Kunming mouse assessed as effect on kidney at 500 mg/kg, ip measured after 14 days by H and E staining based analysis; assay type: organism-based; settings: in vivo, 336 h, time 14 day
[29] = Acute toxicity in Kunming mouse assessed as effect on lung at 500 mg/kg, ip measured after 14 days by H and E staining based analysis; assay type: organism-based; settings: in vivo, 336 h, time 14 day
[30] = Acute toxicity in Kunming mouse assessed as effect on spleen at 500 mg/kg, ip measured after 14 days by H and E staining based analysis; assay type: organism-based; settings: in vivo, 336 h, time 14 day
[31] = Acute toxicity in Kunming mouse assessed as effect on body weight at 500 mg/kg, ip measured after 14 days; assay type: organism-based; settings: in vivo, 336 h, time 14 day
[32] = Acute toxicity in Kunming mouse assessed as effect on heart at 500 mg/kg, ip measured after 14 days by H and E staining based analysis; assay type: organism-based; settings: in vivo, 336 h, time 14 day
[33] = Acute toxicity in Kunming mouse assessed as effect on liver at 500 mg/kg, ip measured 14 days by H and E staining based analysis; assay type: organism-based; settings: in vivo, 336 h, time 14 day

SMILES: Cc1ccc(C(=O)NCCc2c[nH]c3ccc(N(C)C)cc23)c(O)c1
- solubility thermodynamic at 72 h [1]: 40 µg/mL (≈ 119 µM)
- viability at 1 µM (HT-22 [2]): 88%
- viability at 10 µM (HT-22 [3]): 92.7%
- concentration at 4 h [4]: 20 ng/mL
- Activity (HT-22 [5]): 49.2%
- Activity (HT-22 [6]): 81.7%
- concentration at 4 h [7]: 186 ng/mL
- IC50 at 24 h [8]: > 100 µM
- Activity (HT-22 [9]): 0.33%
- Activity (HT-22 [10]): 3.37%
- concentration at 2 h [11]: 633 ng/mL
- Activity (HT-22 [12]): 1.06%
- viability at 10 µM (HT-22 [13]): 93.6%
- IC50 at 24 h [14]: > 100 µM
- Activity (HT-22 [15]): 2.01%
- concentration at 2 h [16]: 30 ng/mL
- Papp [17]: 8.29 ×10⁻⁶ cm/s
- half-life [18]: 4.56 h
- concentration at 0.5 h [19]: 53 ng/mL
- Activity (HT-22 [20]): 3.67%
- Activity (HT-22 [21]): 54%
- concentration at 0.5 h [22]: 4120 ng/mL
- Activity (HT-22 [23]): 5.95%
- viability at 5 µM (HT-22 [24]): 93.7%
- Activity (HT-22 [25]): 2.34%
- Activity (HT-22 [26]): 0.15%
- Activity (HT-22 [27]): 5.84%

SMILES: Cc1ccc(C(=O)NCCc2c[nH]c3ccc(N(C)C)cc23)c(O)c1.Cl
- solubility thermodynamic at 72 h [1]: 2300 µg/mL
- Activity [28]: Non-Toxic
- Activity [29]: Non-Toxic
- Activity [30]: Non-Toxic
- Activity [31]: Non-Toxic
- half-life [18]: 3.96 h
- Activity [32]: Non-Toxic
- Activity [33]: Non-Toxic
